Experimental data reported in the supplement of paper PMC10307832.

Key:
Assay in all cases: relative viability (nuclei count vs DMSO), 5 days (fraction); higher = more cells survive
[1] = compound: CCc1cnn2c(NCc3ccc[n+]([O-])c3)cc(N3CCCC[C@H]3CCO)nc12 [Dinaciclib] + CC(=O)Nc1cccc(-n2c(=O)n(C3CC3)c(=O)c3c(Nc4ccc(I)cc4F)n(C)c(=O)c(C)c32)c1 [Trametinib] (partner 0.02 µM)
How it was run: (§1)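 Values are medians from duplicate plates. Each reflects relative viability, defined as the nuclei count of treated wells over that of vehicle wells. Lung cancer cell lines in 1536-well plates were pin-tool dosed one day after seeding with one drug alone or with a fixed anchor-drug dose plus five library-drug doses (not always all listed) in √10 steps, then fixed, stained and imaged at 4× after 5 days.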

[2] = compound: CCc1cnn2c(NCc3ccc[n+]([O-])c3)cc(N3CCCC[C@H]3CCO)nc12 [Dinaciclib] + C[C@@H](Oc1cc(-c2cnn(C3CCNCC3)c2)cnc1N)c1c(Cl)ccc(F)c1Cl [Crizotinib] (partner 1 µM)
How it was run: as §1

[3] = compound: CCc1cnn2c(NCc3ccc[n+]([O-])c3)cc(N3CCCC[C@H]3CCO)nc12 [Dinaciclib] + C[C@]1(O)C[C@@H](c2nc(-c3ccc4ccc(-c5ccccc5)nc4c3)c3c(N)nccn32)C1 [Linsitinib] (partner 1 µM)
How it was run: as §1

[4] = compound: CCc1cnn2c(NCc3ccc[n+]([O-])c3)cc(N3CCCC[C@H]3CCO)nc12 [Dinaciclib] + Nc1nc2[nH]cc(CCc3ccc(C(=O)N[C@@H](CCC(=O)O)C(=O)O)cc3)c2c(=O)[nH]1 [Pemetrexed] (partner 0.2 µM)
How it was run: as §1

[5] = compound: CCc1cnn2c(NCc3ccc[n+]([O-])c3)cc(N3CCCC[C@H]3CCO)nc12 [Dinaciclib] + O=C(c1cc(Cc2n[nH]c(=O)c3ccccc23)ccc1F)N1CCN(C(=O)C2CC2)CC1 [Olaparib] (partner 8 µM)
How it was run: as §1

Cell Line: NCI-H3122
- relative viability ([1]; first compound 0.009487 µM): 0.292
- relative viability ([1]; first compound 0.03 µM): 0.102
- relative viability ([1]; first compound 0.09487 µM): 0.0935
- relative viability ([1]; first compound 0.3 µM): 0.0911
- relative viability ([2]; first compound 0.009487 µM): 0.253
- relative viability ([2]; first compound 0.03 µM): 0.127
- relative viability ([2]; first compound 0.09487 µM): 0.145
- relative viability ([2]; first compound 0.3 µM): 0.13
- relative viability ([3]; first compound 0.009487 µM): 0.932
- relative viability ([3]; first compound 0.03 µM): 0.147
- relative viability ([3]; first compound 0.09487 µM): 0.145
- relative viability ([3]; first compound 0.3 µM): 0.147
- relative viability ([4]; first compound 0.009487 µM): 0.245
- relative viability ([4]; first compound 0.03 µM): 0.106
- relative viability ([4]; first compound 0.09487 µM): 0.0981
- relative viability ([4]; first compound 0.3 µM): 0.0956
- relative viability ([5]; first compound 0.009487 µM): 0.579
- relative viability ([5]; first compound 0.03 µM): 0.0996
- relative viability ([5]; first compound 0.09487 µM): 0.0974
- relative viability ([5]; first compound 0.3 µM): 0.0928

Cell Line: PC-3 [JPC-3]
- relative viability ([1]; first compound 0.009487 µM): 0.737
- relative viability ([1]; first compound 0.03 µM): 0.657
- relative viability ([1]; first compound 0.09487 µM): 0.334
- relative viability ([1]; first compound 0.3 µM): 0.321
- relative viability ([2]; first compound 0.009487 µM): 0.953
- relative viability ([2]; first compound 0.03 µM): 0.799
- relative viability ([2]; first compound 0.09487 µM): 0.232
- relative viability ([2]; first compound 0.3 µM): 0.198
- relative viability ([3]; first compound 0.009487 µM): 0.912
- relative viability ([3]; first compound 0.03 µM): 0.991
- relative viability ([3]; first compound 0.09487 µM): 0.537
- relative viability ([3]; first compound 0.3 µM): 0.237
- relative viability ([4]; first compound 0.009487 µM): 1.12
- relative viability ([4]; first compound 0.03 µM): 0.53
- relative viability ([4]; first compound 0.09487 µM): 0.289
- relative viability ([4]; first compound 0.3 µM): 0.285
- relative viability ([5]; first compound 0.009487 µM): 1.09
- relative viability ([5]; first compound 0.03 µM): 0.57
- relative viability ([5]; first compound 0.09487 µM): 0.321
- relative viability ([5]; first compound 0.3 µM): 0.288

Cell Line: PC-14
- relative viability ([1]; first compound 0.009487 µM): 0.412
- relative viability ([1]; first compound 0.03 µM): 0.0589
- relative viability ([1]; first compound 0.09487 µM): 0.0476
- relative viability ([1]; first compound 0.3 µM): 0.0471
- relative viability ([2]; first compound 0.009487 µM): 0.651
- relative viability ([2]; first compound 0.03 µM): 0.241
- relative viability ([2]; first compound 0.09487 µM): 0.0877
- relative viability ([2]; first compound 0.3 µM): 0.0668
- relative viability ([3]; first compound 0.009487 µM): 0.873
- relative viability ([3]; first compound 0.03 µM): 0.244
- relative viability ([3]; first compound 0.09487 µM): 0.0973
- relative viability ([3]; first compound 0.3 µM): 0.0775
- relative viability ([4]; first compound 0.009487 µM): 0.111
- relative viability ([4]; first compound 0.03 µM): 0.0682
- relative viability ([4]; first compound 0.09487 µM): 0.0557
- relative viability ([4]; first compound 0.3 µM): 0.0571
- relative viability ([5]; first compound 0.009487 µM): 0.143
- relative viability ([5]; first compound 0.03 µM): 0.0629
- relative viability ([5]; first compound 0.09487 µM): 0.0502
- relative viability ([5]; first compound 0.3 µM): 0.0532

Cell Line: RERF-LC-KJ
- relative viability ([1]; first compound 0.009487 µM): 0.753
- relative viability ([1]; first compound 0.03 µM): 0.22
- relative viability ([1]; first compound 0.09487 µM): 0.143
- relative viability ([1]; first compound 0.3 µM): 0.152
- relative viability ([2]; first compound 0.009487 µM): 0.885
- relative viability ([2]; first compound 0.03 µM): 0.179
- relative viability ([2]; first compound 0.09487 µM): 0.131
- relative viability ([2]; first compound 0.3 µM): 0.122
- relative viability ([3]; first compound 0.009487 µM): 0.924
- relative viability ([3]; first compound 0.03 µM): 0.193
- relative viability ([3]; first compound 0.09487 µM): 0.147
- relative viability ([3]; first compound 0.3 µM): 0.099
- relative viability ([4]; first compound 0.009487 µM): 0.489
- relative viability ([4]; first compound 0.03 µM): 0.161
- relative viability ([4]; first compound 0.09487 µM): 0.126
- relative viability ([4]; first compound 0.3 µM): 0.121
- relative viability ([5]; first compound 0.009487 µM): 0.466
- relative viability ([5]; first compound 0.03 µM): 0.166
- relative viability ([5]; first compound 0.09487 µM): 0.155
- relative viability ([5]; first compound 0.3 µM): 0.154

Cell Line: SK-LU-1
- relative viability ([1]; first compound 0.009487 µM): 0.517
- relative viability ([1]; first compound 0.03 µM): 0.176
- relative viability ([1]; first compound 0.09487 µM): 0.205
- relative viability ([1]; first compound 0.3 µM): 0.186
- relative viability ([2]; first compound 0.009487 µM): 0.602
- relative viability ([2]; first compound 0.03 µM): 0.207
- relative viability ([2]; first compound 0.09487 µM): 0.19
- relative viability ([2]; first compound 0.3 µM): 0.204
- relative viability ([3]; first compound 0.009487 µM): 0.859
- relative viability ([3]; first compound 0.03 µM): 0.218
- relative viability ([3]; first compound 0.09487 µM): 0.165
- relative viability ([3]; first compound 0.3 µM): 0.221
- relative viability ([4]; first compound 0.009487 µM): 0.97
- relative viability ([4]; first compound 0.03 µM): 0.226
- relative viability ([4]; first compound 0.09487 µM): 0.229
- relative viability ([4]; first compound 0.3 µM): 0.185
- relative viability ([5]; first compound 0.009487 µM): 0.381
- relative viability ([5]; first compound 0.03 µM): 0.173
- relative viability ([5]; first compound 0.09487 µM): 0.165
- relative viability ([5]; first compound 0.3 µM): 0.16

Cell Line: SK-MES-1
- relative viability ([1]; first compound 0.009487 µM): 0.536
- relative viability ([1]; first compound 0.03 µM): 0.175
- relative viability ([1]; first compound 0.09487 µM): 0.192
- relative viability ([1]; first compound 0.3 µM): 0.178
- relative viability ([2]; first compound 0.009487 µM): 0.969
- relative viability ([2]; first compound 0.03 µM): 0.18
- relative viability ([2]; first compound 0.09487 µM): 0.191
- relative viability ([2]; first compound 0.3 µM): 0.155
- relative viability ([3]; first compound 0.009487 µM): 1.08
- relative viability ([3]; first compound 0.03 µM): 0.493
- relative viability ([3]; first compound 0.09487 µM): 0.168
- relative viability ([3]; first compound 0.3 µM): 0.164
- relative viability ([4]; first compound 0.009487 µM): 0.799
- relative viability ([4]; first compound 0.03 µM): 0.192
- relative viability ([4]; first compound 0.09487 µM): 0.179
- relative viability ([4]; first compound 0.3 µM): 0.168
- relative viability ([5]; first compound 0.009487 µM): 0.333
- relative viability ([5]; first compound 0.03 µM): 0.16
- relative viability ([5]; first compound 0.09487 µM): 0.139
- relative viability ([5]; first compound 0.3 µM): 0.139

Cell Line: SW 1573
- relative viability ([1]; first compound 0.009487 µM): 0.404
- relative viability ([1]; first compound 0.03 µM): 0.0877
- relative viability ([1]; first compound 0.09487 µM): 0.0832
- relative viability ([1]; first compound 0.3 µM): 0.0755
- relative viability ([2]; first compound 0.009487 µM): 0.608
- relative viability ([2]; first compound 0.03 µM): 0.0718
- relative viability ([2]; first compound 0.09487 µM): 0.066
- relative viability ([2]; first compound 0.3 µM): 0.0807
- relative viability ([3]; first compound 0.009487 µM): 0.679
- relative viability ([3]; first compound 0.03 µM): 0.109
- relative viability ([3]; first compound 0.09487 µM): 0.0988
- relative viability ([3]; first compound 0.3 µM): 0.0866
- relative viability ([4]; first compound 0.009487 µM): 0.345
- relative viability ([4]; first compound 0.03 µM): 0.0723
- relative viability ([4]; first compound 0.09487 µM): 0.07
- relative viability ([4]; first compound 0.3 µM): 0.0635
- relative viability ([5]; first compound 0.009487 µM): 0.224
- relative viability ([5]; first compound 0.03 µM): 0.0736
- relative viability ([5]; first compound 0.09487 µM): 0.062
- relative viability ([5]; first compound 0.3 µM): 0.0659

Cell Line: UMC-11
- relative viability ([1]; first compound 0.009487 µM): 0.253
- relative viability ([1]; first compound 0.03 µM): 0.172
- relative viability ([1]; first compound 0.09487 µM): 0.132
- relative viability ([1]; first compound 0.3 µM): 0.146
- relative viability ([2]; first compound 0.009487 µM): 0.157
- relative viability ([2]; first compound 0.03 µM): 0.0965
- relative viability ([2]; first compound 0.09487 µM): 0.094
- relative viability ([2]; first compound 0.3 µM): 0.0987
- relative viability ([3]; first compound 0.009487 µM): 0.282
- relative viability ([3]; first compound 0.03 µM): 0.167
- relative viability ([3]; first compound 0.09487 µM): 0.169
- relative viability ([3]; first compound 0.3 µM): 0.168
- relative viability ([4]; first compound 0.009487 µM): 0.411
- relative viability ([4]; first compound 0.03 µM): 0.18
- relative viability ([4]; first compound 0.09487 µM): 0.189
- relative viability ([4]; first compound 0.3 µM): 0.146
- relative viability ([5]; first compound 0.009487 µM): 0.176
- relative viability ([5]; first compound 0.03 µM): 0.157
- relative viability ([5]; first compound 0.09487 µM): 0.146
- relative viability ([5]; first compound 0.3 µM): 0.165
